Holding throughout (type): cell-based
In one experiment the test system is IL-6. Kind of experiment: IL-6 levels in human IPF-PCLS culture supernatants (MSD multiplex ELISA). Conditions: single treatment, any concentration tested. The protocol: (§1) PCLS preparation and culture: PCLS were prepared from a single explanted human IPF lung and rested for 48 hrs to allow the post-slicing stress period to elapse before experiments began. PCLS were subsequently incubated with vehicle (0.1% DMSO), tranilast as a 1:1 l-lysine tranilast salt at 2 escalating concentrations (31.25 μM, 125 μM), pirfenidone at 3 escalating concentrations (0.25 mM, 1 mM, 2.5 mM) or nintedanib at 3 escalating concentrations (0.25 μM, 1 μM, 2.5 μM) in the presence or absence of Tranilast at 2 escalating concentrations (31.25 μM, 125 μM) for a further 96 hrs. PCLS culture media and all compounds were refreshed at 24 hrs intervals. All PCLS were harvested at 144 hrs.
(§2) Experimental groups: Twenty-one (21) different groups with n=6 human PCLS (total n=126 per lung) were investigated as shown in Table 4 below. PCLS were prepared from n=1 individual human IPF lungs.
(§3) PCLS Treatments and Media Collections: PCLS were incubated for a 48 hr rest period. […]
(§4) PCLS harvest: Cell culture supernatant (n=6 per group) were collected every 24 hrs and snap frozen for quantification of inflammatory cytokines and soluble ECM proteins. At harvest, PCLS (n=6 per group) and cell culture media (n=6 per group) were snap frozen for quantification of inflammatory cytokines and soluble ECM proteins.
(§5) Soluble outputs analysis: Anti-inflammatory potential was assessed by determining the levels of the inflammation markers MCP-1, IL-6, GMCSF, IL-8, and IL-1β in the tissue culture supernatants experiment (n=213 samples (n=630 samples; n=126 at 48 hrs, 72 hrs, 96 hrs, 120 hrs and 144 hrs) were quantified using a MSD multiplex ELISA (MesoScaleDiscovery). Anti-fibrotic potential was assessed by determining the levels of the fibrosis markers Collagen-1a1, TIMP1, and Fibronectin in the tissue culture supernatants (n=630 samples as above) were quantified using a single-plex ELISA (R&D). Summary data for all inflammatory markers and fibrotic markers in PCLS treated with pirfenidone (FIGS. 1a and 1b) or nintedanib (FIGS. 2a and 2b) in the presence or absence of Tranilast at 144 hrs only. […]
For orientation: An ELISA detects its analyte on a solid surface through an enzyme-linked reagent.

In another experiment the test system is Collagen-1a1. As to the kind of experiment: Collagen 1a1 levels in human IPF-PCLS culture supernatants (single-plex ELISA). Conditions: for Col1A1: after 4-day dosing; for Collagen 1a1 secretion: single treatment. The protocol:
as §1, §2
(§6) PCLS Treatments and Media Collections: PCLS were incubated for a 48 hr rest period. Post-rest, PCLS were incubated for a further 96 hrs in the presence or absence of inhibitors as outlined above. PCLS culture media, including all compounds, were refreshed and harvested at 24 hrs intervals from 48 hrs. All PCLS were harvested at 144 hrs.
as §4
(§7) Soluble outputs analysis: Anti-inflammatory potential was assessed by determining the levels of the inflammation markers MCP-1, IL-6, GMCSF, IL-8, and IL-1β in the tissue culture supernatants experiment (n=213 samples (n=630 samples; n=126 at 48 hrs, 72 hrs, 96 hrs, 120 hrs and 144 hrs) were quantified using a MSD multiplex ELISA (MesoScaleDiscovery). Anti-fibrotic potential was assessed by determining the levels of the fibrosis markers Collagen-1a1, TIMP1, and Fibronectin in the tissue culture supernatants (n=630 samples as above) were quantified using a single-plex ELISA (R&D). Summary data for all inflammatory markers and fibrotic markers in PCLS treated with pirfenidone (FIGS. 1a and 1b) or nintedanib (FIGS. 2a and 2b) in the presence or absence of Tranilast at 144 hrs only. Graphs are represented by n=6 tissue culture media per condition, per time point. Data is presented as mean±SEM with individual values per tissue culture media.

For the next experiment, the system named is IL-8. Kind of experiment: IL-8 levels in human IPF-PCLS culture supernatants (MSD multiplex ELISA). Conditions: single treatment, any concentration tested. The protocol: as §1, §2, §3, §4, §5
A further experiment deals with MCP-1. Kind of experiment: MCP-1 levels in human IPF-PCLS culture supernatants (MSD multiplex ELISA). Conditions: for MCP-1: after 4-day dosing; for MCP-1 secretion: any concentration tested, human IPF PCLS supernatant. The protocol:
as §1, §2, §6, §4, §7

Another experiment deals with Fibronectin. As to the kind of experiment: Fibronectin levels in human IPF-PCLS culture supernatants (single-plex ELISA). Conditions: single treatment, high concentration, at 144 hrs. The protocol: as §1, §2, §3
PCLS harvest: Cell culture supernatant (n=6 per group) were collected every 24 hrs and snap frozen for quantification of inflammatory cytokines and soluble ECM proteins. At harvest, PCLS (n=6 per group) and cell culture media (n=6 per group) were snap frozen for quantification of inflammatory cytokines and soluble ECM proteins. […]

Setting [1] is: suboptimal concentrations alone.
Where [2] appears, read: alone (suboptimal / ineffective concentration).

Each structure is given as a SMILES string. “Also recorded” adds a separate entry of the source.

Regarding `COc1ccc(/C=C/C(=O)Nc2ccccc2C(=O)O)cc1OC` [tranilast, 2-[[3-(3,4-dimethoxyphenyl)-1-oxo-2-propenyl]amino]benzoic acid], the IL-6 secretion result in the experiment with IL-6 is reported as “Little to no effect”. Besides, in the experiment on Collagen-1a1 (setting [1]), the Col1A1 result is recorded as “minimal effect”. Also, in the experiment on Collagen-1a1 (high concentration), the “Collagen 1a1 secretion” value is “marginally reduced”. The IL-8 secretion entry in the experiment on IL-8 is recorded as “little to no effect”. Moreover, the MCP-1 result in the experiment on MCP-1 (setting [2]) is given as “minimal effect; also recorded: neither nintedanib (Nin) nor tranilast (TL) alone effected”. In addition, the MCP-1 levels entry with MCP-1 (single treatment, high concentration) is “marginally reduced”.

In the case of `Cc1ccc(=O)n(-c2ccccc2)c1` [pirfenidone], the Fibronectin secretion result in the experiment with Fibronectin was “attenuation”. In addition, in the experiment with IL-6, the IL-6 secretion entry is “Little to no effect”. Further, the Col1A1 entry is “strongly inhibited” in the experiment with Collagen-1a1 (high concentration alone) and “minimal effect” with Collagen-1a1 (setting [1]). For the same molecule, in the experiment on Collagen-1a1 (any concentration tested), the “Collagen 1a1 secretion” value is listed as “concentration dependently attenuated”. In addition, the IL-8 secretion result in the experiment on IL-8 is recorded as “concentration dependently attenuated”. The MCP-1 result in the experiment on MCP-1 (setting [2]) is “minimal effect”; in the experiment on MCP-1 (high concentration alone), “strongly inhibited”. For the same molecule, in the experiment with MCP-1 (single treatment), the MCP-1 secretion result was “concentration dependently attenuated”.

As to `COC(=O)c1ccc2c(c1)NC(=O)/C2=C(\Nc1ccc(N(C)C(=O)CN2CCN(C)CC2)cc1)c1ccccc1` [nintedanib], the IL-6 secretion result in the experiment on IL-6 is “Little to no effect”. Moreover, the “Collagen 1a1 secretion” value with Collagen-1a1 (any concentration tested) is recorded as “little to no effect”. Moreover, the IL-8 secretion result in the experiment on IL-8 is recorded as “little to no effect”. Besides, in the experiment on MCP-1 (setting [2]), the MCP-1 entry is “no effect; also recorded: neither nintedanib (Nin) nor tranilast (TL) alone effected”. Moreover, in the experiment with MCP-1 (single treatment), the MCP-1 secretion entry was “little to no effect”.
